Measured values as given in ChEMBL document CHEMBL3872249, “Computer design, synthesis, and bioactivity analyses of drugs like fingolimod used in the treatment of multiple sclerosis” (Bioorg Med Chem, 2017).

Assays:
Type in all cases: functional
SH-SY5Y [1] = experiment: Effect on APP mRNA expression in human SH-SY5Y cells at EC10 by qPCR method relative to beta-actin
SK-N-SH [2] = experiment: Effect on ITGB2 mRNA expression in human SK-N-SH cells at EC10 by qPCR method relative to beta-actin
SK-N-SH [3] = experiment: Effect on HDAC1 mRNA expression in human SK-N-SH cells at EC10 by qPCR method relative to beta-actin
SH-SY5Y [4] = experiment: Effect on GRM5 mRNA expression in human SH-SY5Y cells at EC10 by qPCR method relative to beta-actin
SH-SY5Y [5] = experiment: Effect on RAF1 mRNA expression in human SH-SY5Y cells at EC10 by qPCR method relative to beta-actin
U-118-MG [6] = experiment: Effect on HIF1A mRNA expression in human U118MG cells at EC10 by qPCR method relative to beta-actin
SK-N-SH [7] = experiment: Effect on MAL mRNA expression in human SK-N-SH cells at EC10 by qPCR method relative to beta-actin
SK-N-SH [8] = experiment: Effect on GRM7 mRNA expression in human SK-N-SH cells at EC10 by qPCR method relative to beta-actin
SK-N-SH [9] = experiment: Effect on CD44 mRNA expression in human SK-N-SH cells at EC10 by qPCR method relative to beta-actin
U-118-MG [10] = experiment: Effect on MAL mRNA expression in human U118MG cells at EC10 by qPCR method relative to beta-actin
SH-SY5Y [11] = experiment: Effect on CSF1 mRNA expression in human SH-SY5Y cells at EC10 by qPCR method relative to beta-actin
U-118-MG [12] = experiment: Effect on RAF1 mRNA expression in human U118MG cells at EC10 by qPCR method relative to beta-actin
SK-N-SH [13] = experiment: Effect on AGT mRNA expression in human SK-N-SH cells at EC10 by qPCR method relative to beta-actin
SK-N-SH [14] = experiment: Effect on RAF1 mRNA expression in human SK-N-SH cells at EC10 by qPCR method relative to beta-actin
SH-SY5Y [15] = experiment: Effect on HDAC1 mRNA expression in human SH-SY5Y cells at EC10 by qPCR method relative to beta-actin
SH-SY5Y [16] = experiment: Effect on FOXP3 mRNA expression in human SH-SY5Y cells at EC10 by qPCR method relative to beta-actin
U-118-MG [17] = experiment: Effect on STAT3 mRNA expression in human U118MG cells at EC10 by qPCR method relative to beta-actin
SH-SY5Y [18] = experiment: Effect on MAPK1 mRNA expression in human SH-SY5Y cells at EC10 by qPCR method relative to beta-actin
U-118-MG [19] = experiment: Effect on IL13 mRNA expression in human U118MG cells at EC10 by qPCR method relative to beta-actin
SK-N-SH [20] = experiment: Effect on EDN1 mRNA expression in human SK-N-SH cells at EC10 by qPCR method relative to beta-actin
SH-SY5Y [21] = experiment: Effect on GRM2 mRNA expression in human SH-SY5Y cells at EC10 by qPCR method relative to beta-actin
SK-N-SH [22] = experiment: Effect on IL2 mRNA expression in human SK-N-SH cells at EC10 by qPCR method relative to beta-actin
SH-SY5Y [23] = experiment: Effect on CRHR1 mRNA expression in human SH-SY5Y cells at EC10 by qPCR method relative to beta-actin
U-118-MG [24] = experiment: Effect on GRM2 mRNA expression in human U118MG cells at EC10 by qPCR method relative to beta-actin
SK-N-SH [25] = experiment: Effect on GRM2 mRNA expression in human SK-N-SH cells at EC10 by qPCR method relative to beta-actin
U-118-MG [26] = experiment: Effect on VEGFA mRNA expression in human U118MG cells at EC10 by qPCR method relative to beta-actin
SK-N-SH [27] = experiment: Effect on IL13 mRNA expression in human SK-N-SH cells at EC10 by qPCR method relative to beta-actin
SH-SY5Y [28] = experiment: Effect on CXCL11 mRNA expression in human SH-SY5Y cells at EC10 by qPCR method relative to beta-actin
U-118-MG [29] = experiment: Effect on EDN1 mRNA expression in human U118MG cells at EC10 by qPCR method relative to beta-actin
SH-SY5Y [30] = experiment: Effect on EDN1 mRNA expression in human SH-SY5Y cells at EC10 by qPCR method relative to beta-actin
SH-SY5Y [31] = experiment: Effect on C1S mRNA expression in human SH-SY5Y cells at EC10 by qPCR method relative to beta-actin
SK-N-SH [32] = experiment: Effect on CRHR1 mRNA expression in human SK-N-SH cells at EC10 by qPCR method relative to beta-actin
SK-N-SH [33] = experiment: Effect on LTA mRNA expression in human SK-N-SH cells at EC10 by qPCR method relative to beta-actin
SK-N-SH [34] = experiment: Effect on C1S mRNA expression in human SK-N-SH cells at EC10 by qPCR method relative to beta-actin
SH-SY5Y [35] = experiment: Effect on GCGR mRNA expression in human SH-SY5Y cells at EC10 by qPCR method relative to beta-actin
SK-N-SH [36] = experiment: Effect on TNFRSF1B mRNA expression in human SK-N-SH cells at EC10 by qPCR method relative to beta-actin
SK-N-SH [37] = experiment: Effect on CCL5 mRNA expression in human SK-N-SH cells at EC10 by qPCR method relative to beta-actin
U-118-MG [38] = experiment: Effect on SOD1 mRNA expression in human U118MG cells at EC10 by qPCR method relative to beta-actin
SH-SY5Y [39] = experiment: Effect on SOD1 mRNA expression in human SH-SY5Y cells at EC10 by qPCR method relative to beta-actin
U-118-MG [40] = experiment: Effect on GRM4 mRNA expression in human U118MG cells at EC10 by qPCR method relative to beta-actin
U-118-MG [41] = experiment: Effect on CXCL9 mRNA expression in human U118MG cells at EC10 by qPCR method relative to beta-actin

CCCCCCCCc1ccc(CCC(N)(CO)CO)cc1 [FINGOLIMOD]
fold change (FC) (SH-SY5Y [1]): -10.004
fold change (FC) (SK-N-SH [2]): -6.3947
fold change (FC) (SK-N-SH [3]): -6.6778
fold change (FC) (SH-SY5Y [4]): -3.3753
fold change (FC) (SH-SY5Y [5]): -5.0718
fold change (FC) (U-118-MG [6]): -3.2716
fold change (FC) (SK-N-SH [7]): -4.2778
fold change (FC) (SK-N-SH [8]): -6.2306
fold change (FC) (SK-N-SH [9]): -4.3753
fold change (FC) (U-118-MG [10]): -3.8671
fold change (FC) (SH-SY5Y [11]): -3.1329
fold change (FC) (U-118-MG [12]): -3.8172
fold change (FC) (SK-N-SH [13]): 5.63
fold change (FC) (SK-N-SH [14]): -5.2666
fold change (FC) (SH-SY5Y [15]): -15.9446
fold change (FC) (SH-SY5Y [16]): -5.5022
fold change (FC) (U-118-MG [17]): -2.5624

CCCCCCCCn1nnnc1CCC(N)(CO)CO.Cl
fold change (FC) (SH-SY5Y [18]): -2.8875
fold change (FC) (U-118-MG [19]): -5.9963
fold change (FC) (SK-N-SH [20]): 7.7711
fold change (FC) (SH-SY5Y [21]): -4.9647
fold change (FC) (SK-N-SH [22]): -4.9224
fold change (FC) (SH-SY5Y [23]): 4.2103
fold change (FC) (U-118-MG [24]): -3.2823
fold change (FC) (SK-N-SH [25]): -5.1941
fold change (FC) (U-118-MG [26]): -4.4402
fold change (FC) (SK-N-SH [27]): -6.6894
fold change (FC) (SH-SY5Y [28]): -5.0428
fold change (FC) (U-118-MG [29]): 5.5464
fold change (FC) (SH-SY5Y [30]): 7.826
fold change (FC) (SH-SY5Y [31]): -2.6686
fold change (FC) (SK-N-SH [32]): 4.6448
fold change (FC) (SK-N-SH [33]): -5.1941
fold change (FC) (SK-N-SH [34]): -5.1582
fold change (FC) (SH-SY5Y [35]): -4.2885

CCCCCCCCn1nnnc1-c1ccc(C(O)CC(N)(CO)CO)cc1.Cl (stereo unspecified)
fold change (FC) (SK-N-SH [36]): -5.5404
fold change (FC) (SK-N-SH [37]): -4.1626
fold change (FC) (U-118-MG [38]): 5.2803
fold change (FC) (SH-SY5Y [39]): -3.4032
fold change (FC) (U-118-MG [40]): -5.0773
fold change (FC) (U-118-MG [41]): -4.1536
